Laboratory results reported in patent US20210188856A1, “CRYSTAL FORM OF HYDROCHLORIDE OF PYRAZOLOHETEROARYL DERIVATIVE AND PREPARATION METHOD” (JIANGSU HENGRUI MEDICINE CO., LTD., priority 2018, published 2021).
pIC50: −log10 of the molar value. Like-named read-outs stand apart in the source and are kept apart here.

How the values were obtained:
human TLR8 = molecular target: T1, human TLR8 (Homo sapiens, UniProt Q9NR97); assay: Agonistic effect on human TLR8 (HEK-Blue hTLR8 cells); assay type: cell-based
T1 construct: host or cells: HEK-Blue hTLR8 (HEK293-derived) stably transfected cells
T1 sequence (Q9NR97 27-1041): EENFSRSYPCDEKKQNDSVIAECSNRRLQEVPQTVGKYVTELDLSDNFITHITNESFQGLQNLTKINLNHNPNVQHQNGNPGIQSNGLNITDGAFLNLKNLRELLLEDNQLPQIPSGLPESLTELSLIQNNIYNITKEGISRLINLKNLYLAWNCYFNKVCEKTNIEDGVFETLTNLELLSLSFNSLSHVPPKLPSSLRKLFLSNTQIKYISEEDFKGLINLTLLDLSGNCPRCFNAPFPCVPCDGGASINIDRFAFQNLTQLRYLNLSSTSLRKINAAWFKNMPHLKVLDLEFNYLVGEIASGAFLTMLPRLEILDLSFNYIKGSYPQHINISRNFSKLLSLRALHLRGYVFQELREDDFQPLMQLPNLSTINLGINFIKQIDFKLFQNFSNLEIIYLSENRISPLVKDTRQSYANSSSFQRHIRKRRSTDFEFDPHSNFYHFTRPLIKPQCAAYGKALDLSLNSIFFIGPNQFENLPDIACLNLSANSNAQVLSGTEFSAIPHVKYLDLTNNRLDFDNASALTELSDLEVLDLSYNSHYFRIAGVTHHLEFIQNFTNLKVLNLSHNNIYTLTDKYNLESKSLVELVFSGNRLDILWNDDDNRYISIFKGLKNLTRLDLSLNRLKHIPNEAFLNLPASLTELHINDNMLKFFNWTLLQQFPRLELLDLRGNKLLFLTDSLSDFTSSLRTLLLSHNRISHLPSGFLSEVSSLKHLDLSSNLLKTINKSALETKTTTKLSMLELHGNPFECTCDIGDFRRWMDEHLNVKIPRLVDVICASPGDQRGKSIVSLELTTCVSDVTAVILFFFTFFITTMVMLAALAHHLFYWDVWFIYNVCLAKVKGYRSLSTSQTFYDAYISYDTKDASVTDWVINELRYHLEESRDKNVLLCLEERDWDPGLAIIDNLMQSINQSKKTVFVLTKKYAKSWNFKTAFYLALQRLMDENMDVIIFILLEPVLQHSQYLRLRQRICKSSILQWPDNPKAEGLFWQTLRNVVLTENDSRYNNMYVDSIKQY
Procedure: The agonistic effect of the compound represented by formula (I) on the hTLR8 protein expressed in HEK-Blue™ hTLR8 stably transfected cells was determined by the following experimental method:
A bag of HEK-Blue detection dry powder was dissolved in 50 mL of water free of endotoxin, and the solution was then placed in an incubator at 37° C. for 10 minutes followed by sterile filtration to prepare a HEK-Blue detection medium. The compound was firstly formulated into a 20 mM stock solution, then diluted with pure DMSO to a maximum concentration of 6×10^6 nM, and a total of 10 points were obtained by a 3-fold gradient dilution. The compound was firstly diluted 20-fold with the medium, then 20 μL of the diluted compound was added to each well.
The supernatant was removed from the HEK-Blue™ hTLR8 cells, to which 2-5 mL of pre-warmed PBS was then added. The cells were placed in an incubator for 1-2 minutes, gently pipetted, and counted by trypan blue staining. The cells were re-suspended in the HEK-Blue detection medium and the concentration was adjusted to 2.2×10^5 cells/mL. 180 μL of cells was added to the above 96-well plate added with 20 μL of the compound, and incubated at 37° C. for 6-16 hours.
The plate was read with a microplate reader at a wavelength of 620 nm. The corresponding OD values were obtained, and the EC50 value of the compound was calculated by Graphpad Prism.

[1] = Solubility in PBS 7.4 and FaSSIF solutions; assay type: physicochemical; settings: thermodynamic from solid
From the text: The amorphous samples of the compound represented by formula (I) and the crystal form I samples of the dihydrochloride salt of the compound represented by formula (I) obtained in the present disclosure were further evaluated for solubility in PBS 7.4 and FaSSIF solutions.

CYP3A4 = molecular target: T2, CYP3A4 (Homo sapiens, UniProt P08684); assay: Inhibition of midazolam metabolite site of CYP3A4 in human liver microsome; assay type: in vitro ADME
T2 construct: CYP3A4 in human liver microsome; tissue Corning Gentest; host or cells: human liver microsomes
T2 sequence (P08684 whole entry): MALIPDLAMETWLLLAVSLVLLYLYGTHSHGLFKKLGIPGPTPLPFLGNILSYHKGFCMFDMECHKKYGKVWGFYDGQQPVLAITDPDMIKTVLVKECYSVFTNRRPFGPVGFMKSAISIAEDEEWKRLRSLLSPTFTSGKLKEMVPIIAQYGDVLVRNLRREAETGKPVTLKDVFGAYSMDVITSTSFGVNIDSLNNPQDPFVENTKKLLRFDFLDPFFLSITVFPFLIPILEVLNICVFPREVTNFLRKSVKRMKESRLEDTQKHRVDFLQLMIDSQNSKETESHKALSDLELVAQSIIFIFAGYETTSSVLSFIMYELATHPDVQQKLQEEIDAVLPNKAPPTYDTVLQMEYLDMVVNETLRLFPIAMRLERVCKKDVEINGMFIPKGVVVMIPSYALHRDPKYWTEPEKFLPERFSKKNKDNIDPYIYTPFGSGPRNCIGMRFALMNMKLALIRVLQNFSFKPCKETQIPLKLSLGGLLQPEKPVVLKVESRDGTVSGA
Procedure: The effect of the compound represented by formula (I) on the enzyme activity of midazolam metabolite site of CYP3A4 in human liver microsome was determined by the following experimental method:
100 mM PBS buffer was formulated, which was then used to formulate 2.5 mg/mL microsome solution and 5 mM NADPH solution. The 5× concentration of the compound working solution was diluted with PBS gradient (150, 50, 15, 5, 1.5, 0.15, 0.015, 0 μM). The 5× concentration of ketoconazole working solution was diluted with PBS gradient (150, 50, 15, 5, 1.5, 0.15, 0.015, 0 μM). […] working solution was diluted with PBS to a concentration of 50 μM.
20 μL of the 2.5 mg/mL microsome solution, […], 20 μL of MgCl2 solution and 20 μL of the compound working solution (150, 50, 15, 5, 1.5, 0.15, 0.015, 0 μM, different reaction systems for each concentration) were taken respectively and mixed well. For the positive control group, the compound was replaced with the same concentration of ketoconazole. The mixture together with the 5 mM NADPH solution was pre-incubated at 37° C. for 5 minutes. After 5 minutes, 20 μL of NADPH was added to each well, the reaction was started and incubated for 30 minutes. […] 80 μL of the supernatant was taken and analyzed by LC-MS/MS.
The data was calculated by Graphpad Prism to obtain the IC50 value of the compound on the midazolam metabolite site of CYP3A4.

CCCCOc1nc(N)c2cnn(Cc3ccc(CN4CCCC4)cc3)c2n1 [compound represented by formula (I), 6-Butoxy-1-(4-(pyrrolidin-1-ylmethyl)benzyl)-1H-pyrazolo[3,4-d]pyrimidin-4-amine]
agonistic effect on human TLR8 (in words) (human TLR8; HEK-Blue hTLR8 cells): no agonistic effect | selectivity for TLR7 over TLR8 (in words) (human TLR8; from TLR7 and TLR8 results): high selectivity | solubility ([1]; FaSSIF solution, fassif, read-out: FasSIF Solubility): 1090 µg/mL | solubility ([1]; PBS 7.4, pH 7.4, aqueous buffer, read-out: PBS 7.4 Solubility): 30 µg/mL | inhibitory effect on midazolam metabolic site of CYP3A4 (in words) (CYP3A4): no inhibitory effect | pIC50 (CYP3A4; midazolam probe): 4.85
